Experiment [1] has as its target T1, Cav2.3 (Homo sapiens, UniProt Q15878). Description: Whole-cell patch clamp assay (QPatch 16X). Format: cell-based. The settings on record: whole-cell voltage clamp, HEK-293 T-Rex/Kir2.1/Cav2.3e-β4-α2δ1 cells, room temperature; read-out: Cav2.3 (pIC50) (converted). As to the method:
HEK-293 T-Rex/Kir2.1/Cav2.3e-β4-α2δ1 cells were seeded 96 hours before experiment and doxycycline at 0.2 μg/mL was added 24 hours before experiment. Just before the experiments cells were washed twice with D-PBS w/o Ca2+/Mg2+ and gently detached from the flask with Detachin. Cells were then re-suspended in the suspension solution (25 mL EX-CELL ACF CHO medium; 0.25 mL of 100× Penicillin/Streptomycin) and placed on the Automated Patch-clamp platform (QPatch 16X).
Standard whole-cell voltage clamp experiments were performed at room temperature using the single hole technology and the following intracellular and extracellular solutions (ICS and ECS, respectively) were used. ICS (mM): CsF 60, CsCl 50, NaCl 10, EGTA 20, BAPTA 5, HEPES 10, NaGTP 0.3, MgATP 5 (pH 7.2; ECS (mM): NMDG-Cl 120, BaCl2 20, HEPES 10, EGTA 7 (pH 7.4). After establishment of the seal and the passage in the whole-cell configuration, the Cav2.3 dependent current was evoked by challenging the cells with the following voltage protocol: the plasma membrane was held at −80 mV then a 50 ms-long depolarizing pulse at 0 mV, followed by a 50 ms-long hyperpolarizing pulse at −100 mV were applied and finally the plasma membrane was held back to −80 mV. This voltage protocol was applied every 10 seconds. Cav2.3 dependent current was first measured in control condition (vehicle, 0.1% DMSO), in the presence of increasing concentration of the compound under investigation and finally SNX 482 was added to fully block any R-type Cav2.3 dependent current.
For data collection, the Sophion proprietary software was used while the analysis was performed off-line using Excel and GraphPad Prism. The inward current (Area Under Curve) measured during each depolarizing pulse was normalized to cell membrane capacitance (Cm) to obtain the average inward current density in each condition (control, compound under investigation and SNX 482). Then, the inhibitory effect of the compound under investigation was evaluated as % of the remaining inward current, normalized to the internal control. […] All data were expressed as mean±S.E
A general note: Patch clamp records ionic current or voltage across a cell membrane.
Target sequence in this assay (Q15878 1-747 limits assumed): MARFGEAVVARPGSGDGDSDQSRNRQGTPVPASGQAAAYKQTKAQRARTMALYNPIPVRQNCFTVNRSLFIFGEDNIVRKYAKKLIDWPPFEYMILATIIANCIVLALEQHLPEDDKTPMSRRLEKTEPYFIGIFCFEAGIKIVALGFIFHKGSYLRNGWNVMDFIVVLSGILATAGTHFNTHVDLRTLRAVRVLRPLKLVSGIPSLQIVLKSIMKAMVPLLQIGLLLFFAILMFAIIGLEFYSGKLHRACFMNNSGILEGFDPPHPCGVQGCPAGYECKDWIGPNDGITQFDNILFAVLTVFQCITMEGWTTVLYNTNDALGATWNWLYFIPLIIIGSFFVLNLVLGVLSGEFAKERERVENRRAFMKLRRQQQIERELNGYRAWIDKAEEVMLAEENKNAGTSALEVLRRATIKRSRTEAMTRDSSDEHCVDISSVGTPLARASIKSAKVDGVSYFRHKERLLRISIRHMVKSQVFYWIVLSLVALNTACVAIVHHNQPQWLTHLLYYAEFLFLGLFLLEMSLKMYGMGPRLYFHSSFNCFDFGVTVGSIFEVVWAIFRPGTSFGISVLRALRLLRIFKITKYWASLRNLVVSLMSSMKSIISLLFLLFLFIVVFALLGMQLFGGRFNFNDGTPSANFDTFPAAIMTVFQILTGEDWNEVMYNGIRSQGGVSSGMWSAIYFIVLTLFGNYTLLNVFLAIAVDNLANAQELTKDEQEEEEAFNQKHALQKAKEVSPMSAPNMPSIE
Target sequence in this assay (Q15878 1126-1966 limits assumed): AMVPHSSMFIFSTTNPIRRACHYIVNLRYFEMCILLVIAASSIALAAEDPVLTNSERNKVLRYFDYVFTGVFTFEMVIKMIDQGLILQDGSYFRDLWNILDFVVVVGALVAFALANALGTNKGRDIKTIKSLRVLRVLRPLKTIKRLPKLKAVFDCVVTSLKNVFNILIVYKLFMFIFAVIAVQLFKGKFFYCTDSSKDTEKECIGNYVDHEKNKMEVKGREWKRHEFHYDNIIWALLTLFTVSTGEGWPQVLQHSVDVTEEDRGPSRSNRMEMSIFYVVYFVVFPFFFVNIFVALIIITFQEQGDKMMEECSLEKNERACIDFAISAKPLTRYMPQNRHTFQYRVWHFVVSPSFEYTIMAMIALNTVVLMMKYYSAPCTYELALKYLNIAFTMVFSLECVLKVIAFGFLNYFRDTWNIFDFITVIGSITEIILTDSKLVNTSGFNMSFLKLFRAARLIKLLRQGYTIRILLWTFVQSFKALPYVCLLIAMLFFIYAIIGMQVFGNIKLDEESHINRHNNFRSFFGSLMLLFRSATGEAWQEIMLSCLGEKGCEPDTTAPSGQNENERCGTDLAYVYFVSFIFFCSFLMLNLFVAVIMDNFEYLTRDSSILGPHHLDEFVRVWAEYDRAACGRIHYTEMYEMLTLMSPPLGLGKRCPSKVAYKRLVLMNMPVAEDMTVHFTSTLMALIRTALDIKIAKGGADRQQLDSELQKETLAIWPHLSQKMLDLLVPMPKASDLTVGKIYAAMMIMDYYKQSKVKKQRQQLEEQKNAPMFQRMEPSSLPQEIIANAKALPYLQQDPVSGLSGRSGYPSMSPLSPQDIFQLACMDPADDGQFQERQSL

In experiment [2] the target is T1, Cav2.3. The experiment can be described thus: Human Cav2.3 channel calcium-influx assay. Format: cell-based. The settings on record: HEK-293 T-Rex/Kir2.1/Cav2.3e-β4-α2δ1 cells, Fluo8 fluorescence, without pluronic acid; read-out: Cav2.3 (pIC50) (converted). In short, it runs like this: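 Doxycycline-induced HEK-293 T-Rex/Kir2.1 clone stably expressing Cav2.3e with β4-α2δ1, loaded with Fluo8 NW; compounds (8 points from 30 μM, half-log, 0.3% DMSO) preincubated 3 min at RT. Depolarized with 20 mM KCl/2 mM CaCl2; peak-minus-baseline fluorescence over 130 s normalized to neutral and inhibitor controls as % activity.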
Target sequence in this assay (Q15878 1-747 limits assumed): as the sequence (Q15878 1-747 limits assumed) above
Target sequence in this assay (Q15878 1126-2313 limits assumed): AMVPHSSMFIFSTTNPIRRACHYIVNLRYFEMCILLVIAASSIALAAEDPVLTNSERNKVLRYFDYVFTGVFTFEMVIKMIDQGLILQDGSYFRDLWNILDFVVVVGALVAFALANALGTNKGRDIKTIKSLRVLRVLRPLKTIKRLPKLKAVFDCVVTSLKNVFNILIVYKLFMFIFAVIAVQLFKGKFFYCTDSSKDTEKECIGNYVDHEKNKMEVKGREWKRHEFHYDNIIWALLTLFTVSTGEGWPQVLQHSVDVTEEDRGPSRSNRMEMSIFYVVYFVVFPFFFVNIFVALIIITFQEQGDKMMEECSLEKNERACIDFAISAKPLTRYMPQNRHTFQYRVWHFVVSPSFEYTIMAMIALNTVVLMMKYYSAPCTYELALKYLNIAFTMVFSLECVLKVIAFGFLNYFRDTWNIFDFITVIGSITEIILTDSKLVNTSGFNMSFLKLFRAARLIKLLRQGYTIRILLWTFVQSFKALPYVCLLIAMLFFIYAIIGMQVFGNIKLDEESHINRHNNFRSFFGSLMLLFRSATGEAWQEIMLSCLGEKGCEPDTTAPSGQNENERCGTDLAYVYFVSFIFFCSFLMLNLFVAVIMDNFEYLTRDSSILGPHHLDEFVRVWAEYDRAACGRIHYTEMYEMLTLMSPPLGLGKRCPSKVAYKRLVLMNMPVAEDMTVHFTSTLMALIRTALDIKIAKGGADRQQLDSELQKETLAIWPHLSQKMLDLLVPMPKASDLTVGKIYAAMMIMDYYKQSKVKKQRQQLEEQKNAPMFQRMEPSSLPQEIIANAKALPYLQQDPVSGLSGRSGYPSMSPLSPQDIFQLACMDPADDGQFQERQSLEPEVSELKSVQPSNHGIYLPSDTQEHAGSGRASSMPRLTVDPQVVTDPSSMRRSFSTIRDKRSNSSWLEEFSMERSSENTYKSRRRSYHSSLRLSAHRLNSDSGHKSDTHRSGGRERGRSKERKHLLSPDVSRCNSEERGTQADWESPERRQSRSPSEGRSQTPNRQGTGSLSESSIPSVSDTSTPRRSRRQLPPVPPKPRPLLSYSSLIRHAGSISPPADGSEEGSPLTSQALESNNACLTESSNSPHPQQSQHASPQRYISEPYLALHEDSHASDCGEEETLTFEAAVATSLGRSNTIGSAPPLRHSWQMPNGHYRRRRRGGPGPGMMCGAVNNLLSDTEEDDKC

With `CCC1CC2(CCC2)CN1S(=O)(=O)c1ccc2nc(C)sc2c1` (stereo not shown) [Example 1, 6-((7-Ethyl-6-azaspiro[3.4]octan-6-yl)sulfonyl)-2-methylbenzo[d]thiazole], the IC50 in experiment [1] was 2820 nM; in experiment [2], 1410 nM.
For `CCOC(=O)N1CCc2ccc(S(=O)(=O)N3CC4(CCC4)CC3C)cc2C1` (single isomer, unassigned) [Example 23, Ethyl 7-((7-methyl-6-azaspiro[3.4]octan-6-yl)sulfonyl)-3,4-dihydroisoquinoline-2(1H)-carboxylate], in that order: 832 nM and 501 nM.
For `CCC1CC2(CCC2)CN1S(=O)(=O)c1cccs1` (single isomer, unassigned) [Example 71, 7-ethyl-6-(thiophen-2-ylsulfonyl)-6-azaspiro[3.4]octane], in that order: 1580 nM and 1170 nM.
For `CC1CC2(CCC2)CN1S(=O)(=O)c1ccc2c(c1)CN(C(=O)c1ccccc1)CC2` (single isomer, unassigned) [Example 28, (7-((7-methyl-6-azaspiro[3.4]octan-6-yl)sulfonyl)-3,4-dihydroisoquinolin-2(1H)-yl)(phenyl)methanone], in that order: 1700 nM and 1510 nM.
Turning to `CC(C)C(=O)N1CCc2ccc(S(=O)(=O)N3CC4(CCC4)CC3C)cc2C1` (stereo not shown) [Example 30, 2-Methyl-1-(7-((7-methyl-6-azaspiro[3.4]octan-6-yl)sulfonyl)-3,4-dihydroisoquinolin-2(1H)-yl)propan-1-one], the IC50 in experiment [1] was 1700 nM; in experiment [2], 912 nM.
The like results for `CC(C)C(=O)N1CCc2ccc(S(=O)(=O)N3CC4(CCC4)CC3C)cc2C1` (single isomer, unassigned) [Example 31, 2-Methyl-1-(7-((7-methyl-6-azaspiro[3.4]octan-6-yl)sulfonyl)-3,4-dihydroisoquinolin-2(1H)-yl)propan-1-one] were, in that order, 4070 nM and 646 nM.
As to `CC1CC2(CCC2)CN1S(=O)(=O)c1ccc2c(c1)CN(C(=O)c1ccccc1)CC2` (stereo not shown) [Example 26, (7-((7-Methyl-6-azaspiro[3.4]octan-6-yl)sulfonyl)-3,4-dihydroisoquinolin-2(1H)-yl)(phenyl)methanone], the IC50 is 525 nM in experiment [1] and 1100 nM in experiment [2].
For `CC1CC2(CCC2)CN1S(=O)(=O)c1ccc2c(c1)CN(C(=O)Cc1ccccc1)CC2` (stereo not shown) [Example 21, 1-(7-((7-Methyl-6-azaspiro[3.4]octan-6-yl)sulfonyl)-3,4-dihydroisoquinolin-2(1H)-yl)-2-phenylethan-1-one], in that order: 933 nM and 955 nM.
For `CC(C)C(=O)N1CCc2ccc(S(=O)(=O)N3CC4(CCC4)CC3C)cc2C1` (single isomer, unassigned) [Example 32, 2-methyl-1-(7-((7-methyl-6-azaspiro[3.4]octan-6-yl)sulfonyl)-3,4-dihydroisoquinolin-2(1H)-yl)propan-1-one], in that order: 2340 nM and 1580 nM.
The like results for `CC1CC2(CCC2)CN1S(=O)(=O)c1cccs1` (single isomer, unassigned) [Example 104, 7-methyl-6-(thiophen-2-ylsulfonyl)-6-azaspiro[3.4]octane] were, in that order, 3720 nM and 1410 nM.
In the case of `CCC1CC2(CCCC2)CN1S(=O)(=O)c1cccs1` (single isomer, unassigned) [Example 99, 3-ethyl-2-(thiophen-2-ylsulfonyl)-2-azaspiro[4.4]nonane], the IC50 in experiment [2] is 1910 nM.
In the case of `CC1CC2(CCC2)CN1S(=O)(=O)c1cccs1` (single isomer, unassigned) [Example 103, 7-Methyl-6-(thiophen-2-ylsulfonyl)-6-azaspiro[3.4]octane], the IC50 in experiment [2] is 8320 nM.
The same measure, in the same setting: the same measure for `CCC1CC2(CCC2)CN1S(=O)(=O)c1ccc2ccoc2c1` (stereo not shown) [Example 91, 6-(Benzofuran-6-ylsulfonyl)-7-ethyl-6-azaspiro[3.4]octane]: 2400 nM; for `CC1CC2(CCC2)CN1S(=O)(=O)c1cc2oc(=O)[nH]c2cc1Cl` (single isomer, unassigned) [Example 58, 5-chloro-6-((7-methyl-6-azaspiro[3.4]octan-6-yl)sulfonyl)benzo[d]oxazol-2(3H)-one]: 11500 nM; for `CCC1CC2(CCC2)CN1S(=O)(=O)c1cccs1` (single isomer, unassigned) [Example 70, 7-Ethyl-6-(thiophen-2-ylsulfonyl)-6-azaspiro[3.4]octane]: 9550 nM.
Same read-out and setting: the same measure for `CC1CC2(CCC2)CN1S(=O)(=O)c1ccc2c(c1)OCCO2` (single isomer, unassigned) [Example 6, 6-((2,3-Dihydrobenzo[b][1,4]dioxin-6-yl)sulfonyl)-7-methyl-6-azaspiro[3.4]octane]: 7240 nM; for `COCc1ncsc1S(=O)(=O)N1CC2(CCC2)CC1C` (stereo not shown) [Example 89, 4-(Methoxymethyl)-5-((7-methyl-6-azaspiro[3.4]octan-6-yl)sulfonyl)thiazole]: 10000 nM.
The same measure, in the same setting: the same measure for `Cc1ccnc2cc(S(=O)(=O)N3CC4(CCC4)CC3C)ccc12` (single isomer, unassigned) [Example 81, 4-Methyl-7-((7-methyl-6-azaspiro[3.4]octan-6-yl)sulfonyl)quinoline]: 4570 nM; for `Cc1ccc(S(=O)(=O)N2CC3(CCC3)CC2C)s1` (single isomer, unassigned) [Example 77, 7-Methyl-6-((5-methylthiophen-2-yl)sulfonyl)-6-azaspiro[3.4]octane]: 13800 nM; for `CC1CC2(CCC2)CN1S(=O)(=O)c1ccc2c(c1)CN(c1ccccc1)CC2` (stereo not shown) [Example 29, 7-((7-Methyl-6-azaspiro[3.4]octan-6-yl)sulfonyl)-2-phenyl-1,2,3,4-tetrahydroisoquinoline]: 4790 nM.
Take `CC1CC2(CCC2)CN1S(=O)(=O)c1cc2ccccc2o1` (stereo not shown) [Example 66, 6-(Benzofuran-2-ylsulfonyl)-7-methyl-6-azaspiro[3.4]octane]: the IC50 in experiment [2] is 9120 nM.
Same read-out and setting: under `CC1CC2(CCC2)CN1S(=O)(=O)c1ccc2oncc2c1` (stereo not shown) [Example 68, 5-((7-Methyl-6-azaspiro[3.4]octan-6-yl)sulfonyl)benzo[d]isoxazole] stands 39800 nM; under `CC1CC2(CCC2)CN1S(=O)(=O)c1ccc(Cl)s1` (stereo not shown) [Example 108, 6-((5-Chlorothiophen-2-yl)sulfonyl)-7-methyl-6-azaspiro[3.4]octane], 11500 nM; under `CC1CC2(CCC2)CN1S(=O)(=O)c1ccncc1` (single isomer, unassigned) [Example 13, 7-methyl-6-(pyridin-4-ylsulfonyl)-6-azaspiro[3.4]octane], 1660 nM.
`CCC1CC2(CCC2)CN1S(=O)(=O)c1ccc2c(c1)S(=O)(=O)CC2` (stereo not shown) [Example 61, 6-((7-Ethyl-6-azaspiro[3.4]octan-6-yl)sulfonyl)-2,3-dihydrobenzo[b]thiophene 1,1-dioxide]: in experiment [2], the IC50 was 1780 nM.
On to `CC1CC2(CCC2)CN1S(=O)(=O)c1cccs1` (stereo not shown) [Example 102, 7-Methyl-6-(thiophen-2-ylsulfonyl)-6-azaspiro[3.4]octane], for which, in experiment [2], the IC50 was 2690 nM.
As for `CC1CC2(CCC2)CN1S(=O)(=O)c1ccco1` (stereo not shown) [Example 36, 6-(Furan-2-ylsulfonyl)-7-methyl-6-azaspiro[3.4]octane], the IC50 in experiment [2] is 5250 nM.

The record behind these values is patent publication US20250101003A1, “SPIROCYCLIC CAV2.3 ANTAGONISTS” (LARIO THERAPEUTICS LIMITED, priority 2021, published 2025).
